Results reported in US20250152585A1, “PHARMACEUTICAL COMPOUND” (Duke Street Bio Limited, priority 2022, published 2025).
Read-outs that look alike come from different tables or passages of the source.

Columns and labels:
[1] = molecular target: T1, full length N-terminally FLAG-tagged PARP1 (Homo sapiens, UniProt P09874); experiment: PARP1 biochemical DELFIA assay (auto-PARylation); set-up: recombinant full length human N-terminally FLAG-tagged PARP1
[2] = molecular target: T1, full length N-terminally FLAG-tagged PARP1; experiment: PARP1 probe displacement HTRF assay; settings: for Selectivity: PARP1 over PARP2, ratio Kd (PARP2)/Kd (PARP1); for Kd: binned Kd
[3] = molecular target: T2, N-terminally FLAG-tagged PARP2 (amino acids 1-583) (Homo sapiens, UniProt Q9UGN5); experiment: PARP2 probe displacement HTRF assay; type: binding; settings: binned Kd
T2 construct: N-terminally FLAG-tagged PARP2 (amino acids 1-583)
T2 sequence (Q9UGN5 whole entry, the tested form may be a part): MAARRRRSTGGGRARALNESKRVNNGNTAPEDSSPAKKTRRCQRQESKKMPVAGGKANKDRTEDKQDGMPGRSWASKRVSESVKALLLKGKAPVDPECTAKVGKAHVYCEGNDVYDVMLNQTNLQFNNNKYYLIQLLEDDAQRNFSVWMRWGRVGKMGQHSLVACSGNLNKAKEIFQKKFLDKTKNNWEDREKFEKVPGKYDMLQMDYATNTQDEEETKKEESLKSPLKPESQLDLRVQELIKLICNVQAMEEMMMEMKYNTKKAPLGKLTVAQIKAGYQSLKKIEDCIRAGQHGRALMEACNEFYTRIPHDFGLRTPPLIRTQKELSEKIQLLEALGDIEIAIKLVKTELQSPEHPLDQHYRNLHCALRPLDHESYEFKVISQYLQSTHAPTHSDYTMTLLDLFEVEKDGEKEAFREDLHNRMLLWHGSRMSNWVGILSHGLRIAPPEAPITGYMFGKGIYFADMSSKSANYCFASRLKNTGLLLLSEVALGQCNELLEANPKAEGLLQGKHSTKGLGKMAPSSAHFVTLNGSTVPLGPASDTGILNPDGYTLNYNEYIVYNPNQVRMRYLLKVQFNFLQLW
Protocol: Data analysis was performed identical as for PARP1.

[4] = binned IC50, PARP1 biochemical DELFIA assay
[5] = read-out: PARP1 HTRF, PARP1 probe displacement HTRF
[6] = PARP1 HTRF, PARP1 probe displacement HTRF
[7] = binned IC50, biochemical auto-PARylation assay
[8] = read-out: PARP1 HTRF, probe displacement HTRF

T1 sequence (P09874 whole entry): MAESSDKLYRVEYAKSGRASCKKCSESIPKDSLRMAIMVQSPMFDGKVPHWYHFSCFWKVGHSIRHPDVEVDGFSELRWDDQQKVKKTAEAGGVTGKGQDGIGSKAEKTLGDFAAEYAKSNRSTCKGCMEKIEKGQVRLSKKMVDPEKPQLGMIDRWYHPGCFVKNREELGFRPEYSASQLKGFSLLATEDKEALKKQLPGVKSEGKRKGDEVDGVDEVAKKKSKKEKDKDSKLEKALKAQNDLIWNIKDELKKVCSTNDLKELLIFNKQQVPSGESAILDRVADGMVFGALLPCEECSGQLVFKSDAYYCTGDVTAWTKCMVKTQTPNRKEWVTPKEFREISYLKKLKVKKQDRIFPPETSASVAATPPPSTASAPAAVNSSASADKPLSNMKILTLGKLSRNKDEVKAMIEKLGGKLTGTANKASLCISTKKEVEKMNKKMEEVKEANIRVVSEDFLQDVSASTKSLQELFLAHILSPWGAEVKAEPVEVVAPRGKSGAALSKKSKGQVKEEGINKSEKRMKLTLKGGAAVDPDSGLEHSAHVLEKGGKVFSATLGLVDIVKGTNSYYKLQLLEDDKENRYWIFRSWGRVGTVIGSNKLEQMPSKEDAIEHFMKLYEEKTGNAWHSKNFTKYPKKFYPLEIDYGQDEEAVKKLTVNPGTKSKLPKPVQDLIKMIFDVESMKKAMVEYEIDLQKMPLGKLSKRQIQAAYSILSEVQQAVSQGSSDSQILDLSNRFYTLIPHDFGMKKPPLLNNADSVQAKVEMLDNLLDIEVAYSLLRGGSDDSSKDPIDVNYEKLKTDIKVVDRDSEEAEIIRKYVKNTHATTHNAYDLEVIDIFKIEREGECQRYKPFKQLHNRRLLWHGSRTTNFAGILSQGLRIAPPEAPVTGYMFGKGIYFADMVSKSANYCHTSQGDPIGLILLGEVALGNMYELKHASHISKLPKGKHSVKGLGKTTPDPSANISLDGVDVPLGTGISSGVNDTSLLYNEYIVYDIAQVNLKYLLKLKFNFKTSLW

IC50 [1, 4] | Kd [2, 5] | Kd ([3]; PARP2 probe displacement HTRF) | Kd [2, 6] | IC50 [1, 7] | Kd [2, 8] | Kd ([3]; probe displacement HTRF) | Compound | Selectivity ([2]; probe displacement HTRF)
< 0.01 µM |  | 0.01 to 0.1 µM | < 0.01 µM |  |  |  | CNC(=O)c1ccc(N2CCC(N3CCC(c4nc5[nH]nc(C(F)(F)F)c5c(=O)[nH]4)C3)CC2)cn1 (single isomer, unassigned) [Compound 162b, N-methyl-5-(4-(3-(4-oxo-3-(trifluoromethyl)-4,5-dihydro-1H-pyrazolo[3,4-d]pyrimidin-6-yl)pyrrolidin-1-yl)piperidin-1-yl)picolinamide] | ++ (++ indicates a value of 50 to less than 100)
 |  |  |  | < 0.01 µM | < 0.01 µM | 0.1 to 1 µM | O=C(NC1CC1)c1ccc(N2CCC(N3CCC(c4cc5ncc(F)cc5c(=O)[nH]4)C3)CC2)cn1 (single isomer, unassigned) [Compound 372a] | + (+ indicates a value of 10 to less than 50)
 |  |  |  | < 0.01 µM | < 0.01 µM | 0.1 to 1 µM | CCc1ccc(C2CCN(C3CCN(c4ccc(C(=O)NC5CC5)nc4)CC3)C2)[nH]c1=O (single isomer, unassigned) [Compound 338a] | +++ (+++ indicate a value of at least 100)
 |  |  |  | 0.1 to 1 µM | 0.1 to 1 µM | > 10 µM | CNC(=O)c1ccc(N2CCC(N3CCCC(O)(c4nc5ccccc5c(=O)[nH]4)C3)CC2)cn1 (single isomer, unassigned) [Compound 327b] | − (− indicates a value of less than 10)
 |  |  |  | < 0.01 µM | < 0.01 µM | 0.1 to 1 µM | CNC(=O)c1ncc(N2CCC(N3CCC(c4cc5ccc(F)cc5c(=O)[nH]4)C3)CC2)c(Cl)n1 (racemic) [Compound 400rac] | +++ (+++ indicate a value of at least 100)
 |  |  |  | 0.01 to 0.1 µM | 0.01 to 0.1 µM | 0.1 to 1 µM | CNC(=O)c1cnc(N2CCC(N3CCC(c4nc5ccccc5c(=O)[nH]4)C3)CC2)nc1 (racemic) [Compound 318rac] | + (+ indicates a value of 10 to less than 50)
 |  |  |  | < 0.01 µM | < 0.01 µM | 0.1 to 1 µM | CNC(=O)c1cc(C(F)(F)F)c(N2CCC(N3CCC(c4cc5cccc(F)c5c(=O)[nH]4)C3)CC2)cn1 (single isomer, unassigned) [Compound 308b] | +++ (+++ indicate a value of at least 100)
0.1 to 1 µM | 0.1 to 1 µM | > 10 µM |  |  |  |  | CNC(=O)c1ccc(N2CCC(N3CCCC(c4nc5onc(C)c5c(=O)[nH]4)C3)CC2)cn1 (single isomer, unassigned) [Compound 159b] | + (+ indicates a value of 10 to less than 50)
1 to 10 µM | 1 to 10 µM | > 10 µM |  |  |  |  | CNC(=O)c1ccc(N2CCC(N3CCCC(c4ccc(OC)c(=O)[nH]4)C3)CC2)cn1 (single isomer, unassigned) [Compound 147a] | − (− indicates a value of less than 10)
 |  |  |  | < 0.01 µM | < 0.01 µM | 1 to 10 µM | CCc1ccc(C2CCN(C3CCN(c4ccc(C(=O)NCC(F)F)nc4F)CC3)C2)[nH]c1=O (single isomer, unassigned) [Compound 398a] | +++ (+++ indicate a value of at least 100)
 |  |  |  | 1 to 10 µM | 1 to 10 µM | > 10 µM | CNC(=O)c1ccc(N2CCC(N3CCC(c4cc5cccc(OC)c5c(=O)[nH]4)C3)CC2)cn1 (single isomer, unassigned) [Compound 249a] | − (− indicates a value of less than 10)
 |  |  |  | 0.1 to 1 µM | 0.1 to 1 µM | > 10 µM | CNC(=O)c1ccc(N2CCC(N3CCC(c4cnc(C(F)(F)F)c(=O)[nH]4)C3)CC2)cn1 (single isomer, unassigned) [Compound 279a] | + (+ indicates a value of 10 to less than 50)
 |  |  |  | < 0.01 µM | < 0.01 µM | > 10 µM | CCc1ccc(C2CCN(C3CCN(c4ccc(C(=O)NC)nc4Cl)CC3)C2)[nH]c1=O (single isomer, unassigned) [Compound 239a] | +++ (+++ indicate a value of at least 100)
0.1 to 1 µM | 0.1 to 1 µM | > 10 µM |  |  |  |  | CNC(=O)c1ccc(N2CCC(N3CCC(c4ccc(COC)c(=O)[nH]4)C3)CC2)cn1 (single isomer, unassigned) [Compound 207b] | − (− indicates a value of less than 10)
 |  |  |  | < 0.01 µM | < 0.01 µM | 0.1 to 1 µM | CNC(=O)c1ccc(N2CCC(N3CCC(c4[nH]c(=O)c5c(F)cccc5c4F)C3)CC2)c(F)n1 (single isomer, unassigned) [Compound 402a] | +++ (+++ indicate a value of at least 100)
 |  |  |  | < 0.01 µM | < 0.01 µM | 1 to 10 µM | CCc1cc(C)c(C2CCN(C3CCN(c4ccc(C(=O)NC)nc4)CC3)C2)[nH]c1=O (single isomer, unassigned) [Compound 363b] | +++ (+++ indicate a value of at least 100)
0.01 to 0.1 µM | 0.01 to 0.1 µM | > 10 µM |  |  |  |  | CNC(=O)c1ccc(N2CCC(N3CCC(c4cc5c(C(F)(F)F)cccc5c(=O)[nH]4)C3)CC2)cn1 (single isomer, unassigned) [Compound 167a] | ++ (++ indicates a value of 50 to less than 100)
 |  |  |  | < 0.01 µM | < 0.01 µM | 1 to 10 µM | CCCc1ccc(C2CCN(C3CCN(c4ccc(C(=O)NC)nc4F)CC3)C2)[nH]c1=O (single isomer, unassigned) [Compound 269a] | +++ (+++ indicate a value of at least 100)

The next lines start with the molecule.

Compound | IC50 [1, 4] | Kd [2, 5] | Kd ([3]; PARP2 probe displacement HTRF) | Kd [2, 6] | IC50 [1, 7] | Kd [2, 8] | Kd ([3]; probe displacement HTRF) | Selectivity ([2]; probe displacement HTRF)
O=c1[nH]c(C2CCN(C3CCC(F)(F)CC3)C2)nc2ccccc12 (single isomer, unassigned) [Compound 4a] | 0.1 to 1 µM | 0.1 to 1 µM | 0.1 to 1 µM |  |  |  |  | − (− indicates a value of less than 10)
COCCNC(=O)c1ccc(N2CCC(N3CCCC(c4nc5ccccc5c(=O)[nH]4)C3)CC2)cn1 (single isomer, unassigned) [Compound 116b] | 0.1 to 1 µM | 0.1 to 1 µM | 1 to 10 µM |  |  |  |  | − (− indicates a value of less than 10)
CNC(=O)c1ccc(N2CCC(N3CCC(c4ccc(C(C)C)c(=O)[nH]4)C3)CC2)cn1 (racemic) [Compound 142rac] | < 0.01 µM | < 0.01 µM | 1 to 10 µM |  |  |  |  | +++ (+++ indicate a value of at least 100)
CCc1cnc(-c2cnn(C3CCN(c4ccc(C(=O)NC)nc4)CC3)c2)[nH]c1=O [Compound 20] | 0.01 to 0.1 µM |  | > 10 µM | 0.01 to 0.1 µM |  |  |  | ++ (++ indicates a value of 50 to less than 100)
CNC(=O)c1ccc(N2CCC(N3CCC(c4cc5cccc(F)c5c(=O)[nH]4)C3)CC2)cn1 (single isomer, unassigned) [Compound 136a, 5-{4-[3-(8-fluoro-1-oxo-2H-isoquinolin-3-yl)pyrrolidin-1-yl]piperidin-1-yl}-N-methylpyridine-2-carboxamide] | < 0.01 µM |  | 0.1 to 1 µM | < 0.01 µM |  |  |  | +++ (+++ indicate a value of at least 100)
CNC(=O)c1ccc(OCCN2CCCC(c3nc4ccccc4c(=O)[nH]3)C2)cn1 (single isomer, unassigned) [Compound 65a] | < 0.01 µM | < 0.01 µM | 0.1 to 1 µM |  |  |  |  | +++ (+++ indicate a value of at least 100)
CNC(=O)c1ccc(F)c(N2CCC(N3CCCC(c4nc5ccccc5c(=O)[nH]4)C3)CC2)n1 (racemic) [Compound 95rac] | 0.1 to 1 µM | 1 to 10 µM | 1 to 10 µM |  |  |  |  | − (− indicates a value of less than 10)
CNC(=O)c1ccc(N2CCC(N3CCCC(c4nc5ccccc5c(=O)[nH]4)C3)CC2)cn1 (single isomer, unassigned) [Compound 6b, N-methyl-5-(3-(4-oxo-3,4-dihydroquinazolin-2-yl)-[1,4′-bipiperidin]-1′-yl)picolinamide] | 0.1 to 1 µM |  | 1 to 10 µM | 0.1 to 1 µM |  |  |  | + (+ indicates a value of 10 to less than 50)
CNC(=O)c1ccc(N2CC(N3CCC(Cc4nc5ccccc5c(=O)[nH]4)CC3)C2)cn1 [Compound 48] | < 0.01 µM |  | 0.1 to 1 µM | < 0.01 µM |  |  |  | +++ (+++ indicate a value of at least 100)
CNC(=O)c1ccc(N2CCC(N3CCCC(Cc4nc5ccccc5c(=O)[nH]4)C3)CC2)cn1 (single isomer, unassigned) [Compound 57a] | < 0.01 µM | 0.01 to 0.1 µM | > 10 µM |  |  |  |  | +++ (+++ indicate a value of at least 100)
CNC(=O)c1cnc(N2CCC(N3CCC(c4nc5ccccc5c(=O)[nH]4)C3)CC2)cn1 (single isomer, unassigned) [Compound 96a] | 0.01 to 0.1 µM | 0.01 to 0.1 µM | 1 to 10 µM |  |  |  |  | + (+ indicates a value of 10 to less than 50)
O=c1[nH]c(C2CCN(C3CCN(c4ccc(F)cc4F)CC3)C2)nc2ccccc12 (single isomer, unassigned) [Compound 107b] | 0.1 to 1 µM | 0.1 to 1 µM | 0.1 to 1 µM |  |  |  |  | − (− indicates a value of less than 10)
CNC(=O)c1ccc(N2CCC(N3CCC(c4cnc(C)c(=O)[nH]4)C3)CC2)cn1 (racemic) [Compound 127rac] | 0.01 to 0.1 µM | 0.01 to 0.1 µM | > 10 µM |  |  |  |  | +++ (+++ indicate a value of at least 100)
O=c1[nH]c(C2CCN(C3CCN(c4ccc(F)cc4F)CC3)C2)nc2ccccc12 (single isomer, unassigned) [Compound 107a] | 0.01 to 0.1 µM | 0.01 to 0.1 µM | 1 to 10 µM |  |  |  |  | + (+ indicates a value of 10 to less than 50)
